Measured values: patent US10906897B2, “Microbiocidal heterobicyclic derivatives” (priority 2015, dated 2021)

What was measured:
[1] = tested on: Mycosphaerella graminicola (Septoria tritici); assay: Mycosphaerella graminicola (Septoria tritici) / liquid culture (Septoria blotch); type: cell-based; settings: Zymoseptoria tritici, growth inhibition photometrically 4-5 days after application, compared to untreated control
[2] = tested on: Magnaporthe grisea (Pyricularia oryzae); assay: whole plant or invertebrate; type: in vivo; settings: foliar, read-out: control of Magnaporthe grisea
[3] = tested on: Botryotinia fuckeliana (Botrytis cinerea); assay: Botryotinia fuckeliana (Botrytis cinerea) / liquid culture (Gray mould); type: cell-based; settings: growth inhibition photometrically 3-4 days after application, compared to untreated control
Gaeumannomyces graminis = Gaeumannomyces graminis / liquid culture (Take-all of cereals); type: cell-based; settings: growth inhibition photometrically 4-5 days after application, compared to untreated control
Sclerotinia sclerotiorum = Sclerotinia sclerotiorum / liquid culture (cottony rot); settings: read-out: control of Sclerotinia sclerotiorum
Experimental: Sclerotinia sclerotiorum/Liquid Culture (Cottony Rot)
Mycelia fragments of a newly grown liquid culture of the fungus are directly mixed into 5 nutrient broth (Vogels broth). After placing a (DMSO) solution of test compound into a microtiter plate (96-well format) the nutrient broth containing the fungal material is added. The test plates are incubated at 24° C. and the inhibition of growth is determined photometrically 3-4 days after application.

[4] = tested on: Glomerella lagenarium (Colletotrichum lagenarium); assay: Glomerella lagenarium (Colletotrichum lagenarium) / liquid culture (Anthracnose); type: cell-based; settings: Colletotrichum orbiculare, growth inhibition photometrically 3-4 days after application, compared to untreated control
[5] = tested on: Magnaporthe grisea (Pyricularia oryzae); assay: microbe, parasite or virus in culture; type: cell-based; settings: read-out: control of Magnaporthe grisea
[6] = tested on: Monographella nivalis (Microdochium nivale); assay: Monographella nivalis (Microdochium nivale) / liquid culture (foot rot cereals); type: cell-based; settings: 96 h, growth inhibition photometrically 4-5 days after application, compared to untreated control
Fusarium culmorum = assay: microbe, parasite or virus in culture; type: cell-based; settings: read-out: control of Fusarium culmorum

CC1(C)N=C(c2cnn3cc(Br)ccc23)c2ccccc2C1(F)F [Compound E-81, 1-(6-bromopyrazolo[1,5-a]pyridin-3-yl)-4,4-difluoro-3,3-dimethyl-isoquinoline]
inhibition of growth at 20 ppm [1]: ≥ 80% | pest or weed control at 200 ppm [2]: ≥ 50% | inhibition of growth at 20 ppm [3]: ≥ 80% | inhibition of growth at 20 ppm (Gaeumannomyces graminis): ≥ 80% | inhibition of growth at 20 ppm (Sclerotinia sclerotiorum): ≥ 80% | melting point: 127 to 129 °C | inhibition of growth at 20 ppm [4]: ≥ 80% | inhibition of growth at 60 ppm [5]: ≥ 80% | inhibition of growth at 20 ppm [6]: ≥ 80% | inhibition of growth at 20 ppm (Fusarium culmorum): ≥ 80%

CC1(C)N=C(c2cnn3cc(Br)ccc23)c2ccccc2C1=O [Compound E-82, 1-(6-bromopyrazolo[1,5-a]pyridin-3-yl)-3,3-dimethyl-isoquinolin-4-one]
inhibition of growth at 20 ppm [1]: ≥ 80% | inhibition of growth at 20 ppm [3]: ≥ 80% | inhibition of growth at 20 ppm (Gaeumannomyces graminis): ≥ 80% | inhibition of growth at 20 ppm (Sclerotinia sclerotiorum): ≥ 80% | melting point: 147 to 149 °C | inhibition of growth at 20 ppm [4]: ≥ 80% | inhibition of growth at 60 ppm [5]: ≥ 80% | inhibition of growth at 20 ppm [6]: ≥ 80% | inhibition of growth at 20 ppm (Fusarium culmorum): ≥ 80%

Cc1c(F)ccc2c(C3=NC(C)(C)C(F)(F)c4ccccc43)cnn12 [Compound E-88, 4,4-difluoro-1-(6-fluoro-7-methyl-pyrazolo[1,5-a]pyridin-3-yl)-3,3-dimethyl-isoquinoline]
inhibition of growth at 20 ppm [1]: ≥ 80% | pest or weed control at 200 ppm [2]: ≥ 50% | inhibition of growth at 20 ppm [3]: ≥ 80% | inhibition of growth at 20 ppm (Gaeumannomyces graminis): ≥ 80% | inhibition of growth at 20 ppm (Sclerotinia sclerotiorum): ≥ 80% | melting point: 115 to 118 °C | inhibition of growth at 20 ppm [4]: ≥ 80% | inhibition of growth at 60 ppm [5]: ≥ 80% | inhibition of growth at 20 ppm [6]: ≥ 80% | inhibition of growth at 20 ppm (Fusarium culmorum): ≥ 80%

CC1(C)N=C(c2cnn3ccccc23)c2ccccc2C1(F)F [Compound E-80, 4,4-difluoro-3,3-dimethyl-1-pyrazolo[1,5-a]pyridin-3-yl-isoquinoline]
inhibition of growth at 20 ppm [1]: ≥ 80% | inhibition of growth at 20 ppm [3]: ≥ 80% | inhibition of growth at 20 ppm (Gaeumannomyces graminis): ≥ 80% | inhibition of growth at 20 ppm (Sclerotinia sclerotiorum): ≥ 80% | melting point: 78 to 82 °C | inhibition of growth at 20 ppm [4]: ≥ 80% | inhibition of growth at 60 ppm [5]: ≥ 80% | inhibition of growth at 20 ppm [6]: ≥ 80% | inhibition of growth at 20 ppm (Fusarium culmorum): ≥ 80%

Cc1ccc2c(C3=NC(C)(C)C(F)(F)c4ccccc43)cnn2c1 [Compound E-83, 4,4-difluoro-3,3-dimethyl-1-(6-methylpyrazolo[1,5-a]pyridin-3-yl)isoquinoline]
inhibition of growth at 20 ppm [1]: ≥ 80% | pest or weed control at 200 ppm [2]: ≥ 50% | inhibition of growth at 20 ppm [3]: ≥ 80% | inhibition of growth at 20 ppm (Gaeumannomyces graminis): ≥ 80% | inhibition of growth at 20 ppm (Sclerotinia sclerotiorum): ≥ 80% | melting point: 105 to 107 °C | inhibition of growth at 20 ppm [4]: ≥ 80% | inhibition of growth at 60 ppm [5]: ≥ 80% | inhibition of growth at 20 ppm [6]: ≥ 80% | inhibition of growth at 20 ppm (Fusarium culmorum): ≥ 80%

CC1(C)N=C(c2cnn3cc(Cl)ccc23)c2ccccc2C1(F)F [Compound E-87, 1-(6-chloropyrazolo[1,5-a]pyridin-3-yl)-4,4-difluoro-3,3-dimethyl-isoquinoline]
inhibition of growth at 20 ppm [1]: ≥ 80% | pest or weed control at 200 ppm [2]: ≥ 50% | inhibition of growth at 20 ppm [3]: ≥ 80% | inhibition of growth at 20 ppm (Gaeumannomyces graminis): ≥ 80% | inhibition of growth at 20 ppm (Sclerotinia sclerotiorum): ≥ 80% | melting point: 113 to 118 °C | inhibition of growth at 20 ppm [4]: ≥ 80% | inhibition of growth at 60 ppm [5]: ≥ 80% | inhibition of growth at 20 ppm (Fusarium culmorum): ≥ 80%

CCc1ccc2c(C3=NC(C)(C)C(F)(F)c4ccccc43)cnn2c1 [Compound E-86, 1-(6-ethylpyrazolo[1,5-a]pyridin-3-yl)-4,4-difluoro-3,3-dimethyl-isoquinoline]
inhibition of growth at 20 ppm [1]: ≥ 80% | pest or weed control at 200 ppm [2]: ≥ 50% | inhibition of growth at 20 ppm [3]: ≥ 80% | inhibition of growth at 20 ppm (Gaeumannomyces graminis): ≥ 80% | inhibition of growth at 20 ppm (Sclerotinia sclerotiorum): ≥ 80% | inhibition of growth at 20 ppm [4]: ≥ 80% | inhibition of growth at 60 ppm [5]: ≥ 80% | inhibition of growth at 20 ppm (Fusarium culmorum): ≥ 80%

CC1(C)N=C(c2cnn3c(Cl)cccc23)c2ccccc2C1(F)F [Compound E-93, 1-(7-chloropyrazolo[1,5-a]pyridin-3-yl)-4,4-difluoro-3,3-dimethyl-isoquinoline]
inhibition of growth at 20 ppm [1]: ≥ 80% | pest or weed control at 200 ppm [2]: ≥ 50% | inhibition of growth at 20 ppm [3]: ≥ 80% | inhibition of growth at 20 ppm (Sclerotinia sclerotiorum): ≥ 80% | melting point: 129 to 132 °C | inhibition of growth at 20 ppm [4]: ≥ 80% | inhibition of growth at 60 ppm [5]: ≥ 80% | inhibition of growth at 20 ppm [6]: ≥ 80% | inhibition of growth at 20 ppm (Fusarium culmorum): ≥ 80%
